The assay deals with T1, human KSP motor domain (KSP(367H)) (Homo sapiens, UniProt P52732).
T1 construct: were used to amplify the motor domain and the neck linker region; made in house; host or cells: E. coli BL21 (DE3), pRSETa vector
T1 sequence (P52732 18-359 limits assumed): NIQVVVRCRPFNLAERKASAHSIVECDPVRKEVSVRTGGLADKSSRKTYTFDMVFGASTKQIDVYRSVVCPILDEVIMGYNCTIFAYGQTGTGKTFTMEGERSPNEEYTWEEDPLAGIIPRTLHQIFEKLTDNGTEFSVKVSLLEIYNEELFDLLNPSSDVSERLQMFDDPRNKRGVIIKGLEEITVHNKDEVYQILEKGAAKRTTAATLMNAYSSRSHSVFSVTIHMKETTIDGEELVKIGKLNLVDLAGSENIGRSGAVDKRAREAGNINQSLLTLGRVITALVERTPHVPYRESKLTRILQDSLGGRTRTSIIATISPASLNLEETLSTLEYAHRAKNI
The assay can be described thus: Kinesin ATPase in vitro assay. The assay is classed as biochemical. The conditions noted are these: microtubule-stimulated ATPase, 1 mM ATP, 23° C., quinaldine red/ammonium molybdate phosphate detection. The text has this: I. Kinesin ATPase In Vitro Assay
Cloning and Expression of Human Poly-histidine Tagged KSP Motor Domain (KSP(367H))
Plasmids for the expression of the human KSP motor domain construct were cloned by PCR using a pBluescript full length human KSP construct (Blangy et al., Cell, vol. 83, pp 1159-1169, 1995) as a template. The N-terminal primer 5′-[…] (SEQ.ID.NO.: 1) and the C-terminal primer 5′-[…] […] (SEQ.ID.NO.: 2) were used to amplify the motor domain and the neck linker region. The PCR products were digested with AseI and XhoI, ligated into the NdeI/XhoI digestion product of pRSETa (Invitrogen) and transformed into E. coli BL21 (DE3).
Cells were grown at 37° C. to an OD600 of 0.5. […]
The kinesin motor domain is incubated with microtubules, 1 mM ATP (1:1 MgCl2: Na-ATP), and compound at 23° C. in buffer containing 80 mM K-HEPES (pH 7.0), 1 mM EGTA, 1 mM DTT, 1 mM MgCl2, and 50 mM KCl. […] Free phosphate from the ATP hydrolysis reaction is measured via a quinaldine red/ammonium molybdate assay by adding 150 μl of quench C buffer containing a 2:1 ratio of quench A:quench B. Quench A contains 0.1 mg/ml quinaldine red and 0.14% polyvinyl alcohol; quench B contains 12.3 mM ammonium molybdate tetrahydrate in 1.15 M sulfuric acid. The reaction is incubated for 10 minutes at 23° C., and the absorbance of the phospho-molybdate complex is measured at 540 nm.

Bounds are passed on as bounds.

What is called IC50 is the concentration needed to halve the response being measured. The low end stands for higher potency, the high end for lower potency. Consider `CCC(c1nc2[nH]nc(Br)c2c(=O)n1Cc1ccccc1)N(CCN(C)C)C(=O)c1ccc(Br)cc1` (stereo not shown) [1-5, N-[1-(5-benzyl-3-bromo-4-oxo-4,5-dihydro-1H-pyrazolo[3,4-d]pyrimidin-6-yl)propyl]-4-bromo-N-[2-(dimethylamino)ethyl]benzamide], for which the IC50 was at most 50 µM.

For the origin of these results see patent US7262186B2, “Substituted pyrazolo[3,4-d] pyrimidinones as a mitotic kinesin inhibitor” (Merck & Co., Inc., priority 2001, dated 2007).
